{"source": "patent US6376518B1", "about": "“Acyl derivatives of 4-demethylpenclomedine, use thereof and preparation thereof” (Southern Research Institute, priority 1999, dated 2002)", "key": {"patients": {"system": "patients", "settings": "patients with advanced solid tumors; one hour infusion for 5 consecutive days; cited from earlier work"}, "P388/CPA leukemia": {"system": "P388/CPA leukemia", "assay": "Antitumor activity against IP-implanted P388/CPA leukemia in mice", "type": "in vivo, murine", "settings": "P388/CPA, Q1D × 5 (1)"}, "P388/BCNU leukemia": {"system": "P388/BCNU leukemia", "assay": "Antitumor activity against IP-implanted P388/BCNU leukemia in mice", "settings": "P388/BCNU, Q1D × 5 (1); for MEDIAN DAY OF DEATH: dying mice only"}, "human MX-1 mammary tumor": {"system": "human MX-1 mammary tumor", "assay": "In vivo antitumor activity vs i.c.-implanted human MX-1 mammary tumor xenograft in athymic mice", "settings": "ic MX-1; optimal doses (LD10 or less), schedule QD1-5, administered LP."}, "[1]": {"settings": "tumor-bearing rats, 14C-penclomedine; cited from earlier work"}, "P388/0 leukemia": {"system": "P388/0 leukemia", "settings": "P388/0, Q1D × 5 (1); for MEDIAN DAY OF DEATH: dying mice only"}, "P388/L-PAM leukemia": {"system": "P388/L-PAM leukemia", "settings": "for 50-DAY SURV/TOTAL / % ILS / APPROX. NET LOG10 CHANGE IN TUMOR BURDEN AT END OF Rx / MEDIAN DAY OF DEATH: P388/L-PAM, Q1D × 5 (1); for MEDIAN DAY OF DEATH: dying mice only"}}, "note": "Where two headings read alike, the source gives them in different places.", "data": [{"smiles": "COc1nc(C(Cl)(Cl)Cl)c(Cl)c(OC)c1Cl", "note": "[PEN, 3,5-dichloro-2,4-dimethoxy-6-(trichloromethyl)pyridine]", "values": [{"measurement": "neurotoxicity (dysmetria, ataxia, vertigo)", "setting": "patients", "value": "principal dose limiting toxicity"}, {"measurement": "50-DAY SURV/TOTAL", "setting": "P388/CPA leukemia; IP 60.0 mg/kg/dose", "value": "0/6"}, {"measurement": "% ILS", "setting": "P388/CPA leukemia; IP 60.0 mg/kg/dose", "value": "−5", "unit": "%"}, {"measurement": "APPROX. NET LOG10 CHANGE IN TUMOR BURDEN AT END OF Rx", "setting": "P388/CPA leukemia; IP 60.0 mg/kg/dose", "value": "+1.7"}, {"measurement": "50-DAY SURV/TOTAL", "setting": "P388/CPA leukemia; IP 90.0 mg/kg/dose", "value": "0/6"}, {"measurement": "% ILS", "setting": "P388/CPA leukemia; IP 90.0 mg/kg/dose", "value": "−5", "unit": "%"}, {"measurement": "APPROX. NET LOG10 CHANGE IN TUMOR BURDEN AT END OF Rx", "setting": "P388/CPA leukemia; IP 90.0 mg/kg/dose", "value": "+1.7"}, {"measurement": "50-DAY SURV/TOTAL", "setting": "P388/CPA leukemia; IP 135.0 mg/kg/dose", "value": "0/6"}, {"measurement": "% ILS", "setting": "P388/CPA leukemia; IP 135.0 mg/kg/dose", "value": "−5", "unit": "%"}, {"measurement": "APPROX. NET LOG10 CHANGE IN TUMOR BURDEN AT END OF Rx", "setting": "P388/CPA leukemia; IP 135.0 mg/kg/dose", "value": "+1.7"}, {"measurement": "50-DAY SURV/TOTAL", "setting": "P388/BCNU leukemia; IP 60.0 mg/kg/dose", "value": "0/6"}, {"measurement": "% ILS", "setting": "P388/BCNU leukemia; IP 60.0 mg/kg/dose", "value": "−6", "unit": "%"}, {"measurement": "APPROX. NET LOG10 CHANGE IN TUMOR BURDEN AT END OF Rx", "setting": "P388/BCNU leukemia; IP 60.0 mg/kg/dose", "value": "+1.8"}, {"measurement": "MEDIAN DAY OF DEATH", "setting": "P388/BCNU leukemia; IP 60.0 mg/kg/dose", "value": 8.5}, {"measurement": "50-DAY SURV/TOTAL", "setting": "P388/BCNU leukemia; IP 90.0 mg/kg/dose", "value": "0/6"}, {"measurement": "% ILS", "setting": "P388/BCNU leukemia; IP 90.0 mg/kg/dose", "value": 0, "unit": "%"}, {"measurement": "APPROX. NET LOG10 CHANGE IN TUMOR BURDEN AT END OF Rx", "setting": "P388/BCNU leukemia; IP 90.0 mg/kg/dose", "value": "+1.7"}, {"measurement": "MEDIAN DAY OF DEATH", "setting": "P388/BCNU leukemia; IP 90.0 mg/kg/dose", "value": 9.0}, {"measurement": "50-DAY SURV/TOTAL", "setting": "P388/BCNU leukemia; IP 135.0 mg/kg/dose", "value": "0/6"}, {"measurement": "% ILS", "setting": "P388/BCNU leukemia; IP 135.0 mg/kg/dose", "value": "+27%"}, {"measurement": "APPROX. NET LOG10 CHANGE IN TUMOR BURDEN AT END OF Rx", "setting": "P388/BCNU leukemia; IP 135.0 mg/kg/dose", "value": "+1.2"}, {"measurement": "Median % ILS (based on dying mice only)", "setting": "human MX-1 mammary tumor", "value": 88, "unit": "%"}, {"measurement": "Survivors", "setting": "human MX-1 mammary tumor", "value": "0/5"}, {"measurement": "predominant radioactive species in the brain", "setting": "[1]", "value": "predominant radioactive species in the brain was penclomedine"}, {"measurement": "50-DAY SURV/TOTAL", "setting": "P388/0 leukemia; IP 60.0 mg/kg/dose", "value": "0/6"}, {"measurement": "% ILS", "setting": "P388/0 leukemia; IP 60.0 mg/kg/dose", "value": "+31%"}, {"measurement": "APPROX. NET LOG10 CHANGE IN TUMOR BURDEN AT END OF Rx", "setting": "P388/0 leukemia; IP 60.0 mg/kg/dose", "value": "+0.4"}, {"measurement": "50-DAY SURV/TOTAL", "setting": "P388/0 leukemia; IP 90.0 mg/kg/dose", "value": "0/6"}, {"measurement": "% ILS", "setting": "P388/0 leukemia; IP 90.0 mg/kg/dose", "value": "+45%"}, {"measurement": "APPROX. NET LOG10 CHANGE IN TUMOR BURDEN AT END OF Rx", "setting": "P388/0 leukemia; IP 90.0 mg/kg/dose", "value": "−0.8"}, {"measurement": "MEDIAN DAY OF DEATH", "setting": "P388/0 leukemia; IP 90.0 mg/kg/dose", "value": 18.0}, {"measurement": "50-DAY SURV/TOTAL", "setting": "P388/0 leukemia; IP 135.0 mg/kg/dose", "value": "0/6"}, {"measurement": "% ILS", "setting": "P388/0 leukemia; IP 135.0 mg/kg/dose", "value": "+90%"}, {"measurement": "APPROX. NET LOG10 CHANGE IN TUMOR BURDEN AT END OF Rx", "setting": "P388/0 leukemia; IP 135.0 mg/kg/dose", "value": "−4.8"}, {"measurement": "MEDIAN DAY OF DEATH", "setting": "P388/0 leukemia; IP 135.0 mg/kg/dose", "value": 21.0}, {"measurement": "50-DAY SURV/TOTAL", "setting": "P388/L-PAM leukemia; IP 60.0 mg/kg/dose", "value": "0/6"}, {"measurement": "% ILS", "setting": "P388/L-PAM leukemia; IP 60.0 mg/kg/dose", "value": 0, "unit": "%"}, {"measurement": "APPROX. NET LOG10 CHANGE IN TUMOR BURDEN AT END OF Rx", "setting": "P388/L-PAM leukemia; IP 60.0 mg/kg/dose", "value": "+1.4"}, {"measurement": "MEDIAN DAY OF DEATH", "setting": "P388/L-PAM leukemia; IP 60.0 mg/kg/dose", "value": 14.0}, {"measurement": "50-DAY SURV/TOTAL", "setting": "P388/L-PAM leukemia; IP 90.0 mg/kg/dose", "value": "0/6"}, {"measurement": "% ILS", "setting": "P388/L-PAM leukemia; IP 90.0 mg/kg/dose", "value": "−8", "unit": "%"}, {"measurement": "APPROX. NET LOG10 CHANGE IN TUMOR BURDEN AT END OF Rx", "setting": "P388/L-PAM leukemia; IP 90.0 mg/kg/dose", "value": "+1.6"}, {"measurement": "MEDIAN DAY OF DEATH", "setting": "P388/L-PAM leukemia; IP 90.0 mg/kg/dose", "value": 13.0}, {"measurement": "50-DAY SURV/TOTAL", "setting": "P388/L-PAM leukemia; IP 135.0 mg/kg/dose", "value": "0/6"}, {"measurement": "% ILS", "setting": "P388/L-PAM leukemia; IP 135.0 mg/kg/dose", "value": "−8", "unit": "%"}, {"measurement": "APPROX. NET LOG10 CHANGE IN TUMOR BURDEN AT END OF Rx", "setting": "P388/L-PAM leukemia; IP 135.0 mg/kg/dose", "value": "+1.6"}, {"measurement": "MEDIAN DAY OF DEATH", "setting": "P388/L-PAM leukemia; IP 135.0 mg/kg/dose", "value": 13.0}, {"measurement": "activity in the P388/L-PAM tumor model (in words)", "setting": "P388/L-PAM leukemia; mouse, in vivo", "value": "none of the three showed significant activity"}]}]}
